Our source for the TGI values is PubChem BioAssay (NCI).

Some test systems named below: RXF-631 renal; SNB-78 CNS; DMS 273 small cell lung; XF 498 CNS.
Assay in all cases: growth of human tumour cells (NCI), 48 h

Structures are written as SMILES.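 Results reflect a 48-hour exposure of cells in 96-well plates to compound at five concentrations. TGI is the concentration that stops growth completely.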

Regarding `O=C1C(Br)=C(Br)C(=O)c2ccc(=O)ccc21`, the TGI was 39.7 µM in the assay on RXF-631 renal, above 100 µM in the assay with SNB-78 CNS, above 100 µM in the assay with DMS 273 small cell lung and 43.2 µM in the assay on XF 498 CNS.
On to `C/C(CN1C(=O)c2ccccc2C1=O)=N\NS(=O)(=O)c1ccc(Cl)cc1`, for which the TGI with RXF-631 renal, with SNB-78 CNS, with DMS 273 small cell lung and in the assay with XF 498 CNS was above 100 µM throughout.
Consider `O=C1c2ccccc2C(=O)c2c(/C=C\N3CCCCC3)ccnc21`, for which the TGI with RXF-631 renal is above 45.8 µM; in the assay with SNB-78 CNS, 61.8 µM; with DMS 273 small cell lung, 10.4 µM; in the assay with XF 498 CNS, 27.2 µM.
Take `CC(=O)OCCOCNC(=S)N/N=C/c1ccc([N+](=O)[O-])o1`: the TGI with RXF-631 renal, in the assay with SNB-78 CNS, in the assay on DMS 273 small cell lung and in the assay on XF 498 CNS was above 100 µM throughout.
With `COc1cc(-c2cccs2)sc1-c1cccs1`, the TGI with SNB-78 CNS and in the assay on DMS 273 small cell lung was above 100 µM throughout.
For `CCOC(=O)/C(=C/c1ccc(OC)cc1)N(CC)CC`, the TGI in the assay with SNB-78 CNS, in the assay on DMS 273 small cell lung and in the assay on XF 498 CNS was above 100 µM throughout.
For the molecule `CN(C)CC1CCC/C1=N/OC(=O)c1ccccc1` (configuration not stated), the TGI in the assay with RXF-631 renal, in the assay on SNB-78 CNS and in the assay on DMS 273 small cell lung was above 100 µM throughout.
As for `O=C(Nc1nc(=S)[nH][nH]1)C(=O)C(C(=O)c1ccc2ccccc2c1)C1OC(=O)c2ccccc21` (configuration not stated), the TGI with RXF-631 renal is 77.6 µM; with SNB-78 CNS, above 100 µM; in the assay on DMS 273 small cell lung it was 87.5 µM; in the assay with XF 498 CNS, 41.9 µM.
`COc1cc2c(cc1O)[C@H](C)C(c1ccc(OC)c(OC)c1)O2` (some centres not stated): the TGI was 64.7 µM with SNB-78 CNS, 15.4 µM in the assay on DMS 273 small cell lung and 21.8 µM in the assay on XF 498 CNS.
As to `S=P1(Oc2ccccc2)NNP2(=NP(N3CC3)(N3CC3)=NP(N3CC3)(N3CC3)=N2)NN1` (configuration not stated), the TGI with RXF-631 renal, in the assay with DMS 273 small cell lung and in the assay with XF 498 CNS was above 100 µM throughout.
In the case of `CNC(=O)NCCCC(NC(C)=O)C(=O)NCc1ccccc1` (configuration not stated), the TGI in the assay on RXF-631 renal, in the assay with SNB-78 CNS and in the assay with DMS 273 small cell lung was above 100 µM in each case.
For the molecule `COc1cc(C2C(Cl)C(=O)N2n2cnc3ccccc3c2=O)ccc1O` (configuration not stated), the TGI in the assay with SNB-78 CNS and with DMS 273 small cell lung was above 100 µM each time.
`N#Cc1cccc(-n2[nH]c(=O)ccc2=O)c1`: the TGI with DMS 273 small cell lung is above 100 µM.
Take `COc1ccc(C2Oc3cc(OC)c(OC)cc3C2CCl)cc1OC` (configuration not stated): the TGI with DMS 273 small cell lung and in the assay with XF 498 CNS was above 100 µM throughout.
`CCNC(=O)c1ccc(C)c(N=NN(C)C)c1`: the TGI in the assay on SNB-78 CNS and in the assay with DMS 273 small cell lung was above 100 µM throughout.
As for `O=c1cc(-c2ccc3c(c2)OCO3)[nH]c2cc3c(cc12)OCO3`, the TGI in the assay on SNB-78 CNS, with DMS 273 small cell lung and in the assay on XF 498 CNS was above 100 µM in each case.
